In US10168342B2, “Lipid probes and uses thereof” (THE SCRIPPS RESEARCH INSTITUTE, priority 2015, dated 2019):

Columns and labels:
Assay in all cases: SILAC MS mapping of lipid probe targets (probe-versus-No UV, probe-versus-probe) in Neuro2a cells
[1] = biological target: T1, lipid-binding proteins in Neuro2a cells (Mus musculus, UniProt O08579); type: cell-based; settings: AEA-DA probe vs NoUV
T1 construct: endogenous in cells; host or cells: Neuro2a

[2] = biological target: T2, lipid-binding proteins in Neuro2a cells (Mus musculus, UniProt O70252); type: cell-based; settings: AEA-DA probe vs NoUV
T2 construct: endogenous in cells; host or cells: Neuro2a

[3] = biological target: T3, lipid-binding proteins in Neuro2a cells (Mus musculus, UniProt O70503); type: cell-based; settings: AEA-DA probe vs NoUV
T3 construct: endogenous in cells; host or cells: Neuro2a

[4] = biological target: T4, lipid-binding proteins in Neuro2a cells (Mus musculus, UniProt P21619); type: cell-based; settings: protein Lmnb2, AEA-DA probe, No UV control
T4 construct: endogenous in cells; host or cells: Neuro2a

[5] = biological target: T5, lipid-binding proteins in Neuro2a cells (Mus musculus, UniProt P45878); type: cell-based; settings: protein Fkbp2, AEA-DA probe, No UV control
T5 construct: endogenous in cells; host or cells: Neuro2a

[6] = biological target: T6, lipid-binding proteins in Neuro2a cells (Mus musculus, UniProt Q3KNM2); type: cell-based; settings: AEA-DA probe vs NoUV
T6 construct: endogenous in cells; host or cells: Neuro2a

[7] = biological target: T7, lipid-binding proteins in Neuro2a cells (Mus musculus, UniProt Q3UV70); type: cell-based; settings: protein Pdp1, AEA-DA probe, No UV control
T7 construct: endogenous in cells; host or cells: Neuro2a

[8] = biological target: T8, lipid-binding proteins in Neuro2a cells (Mus musculus, UniProt Q505D7); type: cell-based; settings: AEA-DA probe vs NoUV
T8 construct: endogenous in cells; host or cells: Neuro2a

[9] = biological target: T9, lipid-binding proteins in Neuro2a cells (Mus musculus, UniProt Q60930); type: cell-based; settings: AEA-DA probe vs NoUV
T9 construct: endogenous in cells; host or cells: Neuro2a

[10] = biological target: T10, lipid-binding proteins in Neuro2a cells (Mus musculus, UniProt Q60932); type: cell-based; settings: AEA-DA probe vs NoUV
T10 construct: endogenous in cells; host or cells: Neuro2a

[11] = biological target: T11, lipid-binding proteins in Neuro2a cells (Mus musculus, UniProt Q61207); type: cell-based; settings: AEA-DA probe vs NoUV
T11 construct: endogenous in cells; host or cells: Neuro2a

[12] = biological target: T12, lipid-binding proteins in Neuro2a cells (Mus musculus, UniProt Q62465); type: cell-based; settings: AEA-DA probe vs NoUV
T12 construct: endogenous in cells; host or cells: Neuro2a

[13] = biological target: T13, lipid-binding proteins in Neuro2a cells (Mus musculus, UniProt Q78IK4); type: cell-based; settings: protein Apool, AEA-DA probe, No UV control
T13 construct: endogenous in cells; host or cells: Neuro2a

[14] = biological target: T14, lipid-binding proteins in Neuro2a cells (Mus musculus, UniProt Q80UU9); type: cell-based; settings: AEA-DA probe vs NoUV
T14 construct: endogenous in cells; host or cells: Neuro2a

[15] = biological target: T15, lipid-binding proteins in Neuro2a cells (Mus musculus, UniProt Q8BHC4); type: cell-based; settings: AEA-DA probe vs NoUV
T15 construct: endogenous in cells; host or cells: Neuro2a

[16] = biological target: T16, lipid-binding proteins in Neuro2a cells (Mus musculus, UniProt Q8BIJ6); type: cell-based; settings: protein Iars2, AEA-DA probe, No UV control
T16 construct: endogenous in cells; host or cells: Neuro2a

[17] = biological target: T17, lipid-binding proteins in Neuro2a cells (Mus musculus, UniProt Q8BJ03); type: cell-based; settings: protein Cox15, AEA-DA probe, No UV control
T17 construct: endogenous in cells; host or cells: Neuro2a

[18] = biological target: T18, lipid-binding proteins in Neuro2a cells (Mus musculus, UniProt Q8BVU5); type: cell-based; settings: protein Nudt9, AEA-DA probe, No UV control
T18 construct: endogenous in cells; host or cells: Neuro2a

[19] = biological target: T19, lipid-binding proteins in Neuro2a cells (Mus musculus, UniProt Q8R0X7); type: cell-based; settings: AEA-DA probe vs NoUV
T19 construct: endogenous in cells; host or cells: Neuro2a

[20] = biological target: T20, lipid-binding proteins in Neuro2a cells (Mus musculus, UniProt Q8R2Y0); type: cell-based; settings: AEA-DA probe vs NoUV
T20 construct: endogenous in cells; host or cells: Neuro2a

[21] = biological target: T21, lipid-binding proteins in Neuro2a cells (Mus musculus, UniProt Q8VCB1); type: cell-based; settings: AEA-DA probe vs NoUV
T21 construct: endogenous in cells; host or cells: Neuro2a

[22] = biological target: T22, lipid-binding proteins in Neuro2a cells (Mus musculus, UniProt Q8VCX5); type: cell-based; settings: protein Micu1, AEA-DA probe, No UV control
T22 construct: endogenous in cells; host or cells: Neuro2a

[23] = biological target: T23, lipid-binding proteins in Neuro2a cells (Mus musculus, UniProt Q91V01); type: cell-based; settings: AEA-DA probe vs NoUV
T23 construct: endogenous in cells; host or cells: Neuro2a

[24] = biological target: T24, lipid-binding proteins in Neuro2a cells (Mus musculus, UniProt Q91VM5); type: cell-based; settings: protein Rbmxl1, AEA-DA probe, No UV control
T24 construct: endogenous in cells; host or cells: Neuro2a

[25] = biological target: T25, lipid-binding proteins in Neuro2a cells (Mus musculus, UniProt Q924D0); type: cell-based; settings: protein Rtn4ip1, AEA-DA probe, No UV control
T25 construct: endogenous in cells; host or cells: Neuro2a

[26] = biological target: T26, lipid-binding proteins in Neuro2a cells (Mus musculus, UniProt Q924Z4); type: cell-based; settings: AEA-DA probe vs NoUV
T26 construct: endogenous in cells; host or cells: Neuro2a

[27] = biological target: T27, lipid-binding proteins in Neuro2a cells (Mus musculus, UniProt Q99JY4); type: cell-based; settings: AEA-DA probe vs NoUV
T27 construct: endogenous in cells; host or cells: Neuro2a

[28] = biological target: T28, lipid-binding proteins in Neuro2a cells (Mus musculus, UniProt Q99KJ8); type: cell-based; settings: protein Dctn2, AEA-DA probe, No UV control
T28 construct: endogenous in cells; host or cells: Neuro2a

[29] = biological target: T29, lipid-binding proteins in Neuro2a cells (Mus musculus, UniProt Q9CPQ3); type: cell-based; settings: AEA-DA probe vs NoUV
T29 construct: endogenous in cells; host or cells: Neuro2a

[30] = biological target: T30, lipid-binding proteins in Neuro2a cells (Mus musculus, UniProt Q9CQ85); type: cell-based; settings: AEA-DA probe vs NoUV
T30 construct: endogenous in cells; host or cells: Neuro2a

[31] = biological target: T31, lipid-binding proteins in Neuro2a cells (Mus musculus, UniProt Q9R0P6); type: cell-based; settings: AEA-DA probe vs NoUV
T31 construct: endogenous in cells; host or cells: Neuro2a

[32] = biological target: T32, lipid-binding proteins in Neuro2a cells (Mus musculus, UniProt Q9R1J0); type: cell-based; settings: AEA-DA probe vs NoUV
T32 construct: endogenous in cells; host or cells: Neuro2a

[33] = biological target: T33, lipid-binding proteins in Neuro2a cells (Mus musculus, UniProt Q9Z0R9); type: cell-based; settings: AEA-DA probe vs NoUV
T33 construct: endogenous in cells; host or cells: Neuro2a

[34] = test system: lipid-binding proteins in Neuro2a cells; type: cell-based, mouse; settings: AEA-DA probe vs NoUV

T10 sequence (Q60932 whole entry): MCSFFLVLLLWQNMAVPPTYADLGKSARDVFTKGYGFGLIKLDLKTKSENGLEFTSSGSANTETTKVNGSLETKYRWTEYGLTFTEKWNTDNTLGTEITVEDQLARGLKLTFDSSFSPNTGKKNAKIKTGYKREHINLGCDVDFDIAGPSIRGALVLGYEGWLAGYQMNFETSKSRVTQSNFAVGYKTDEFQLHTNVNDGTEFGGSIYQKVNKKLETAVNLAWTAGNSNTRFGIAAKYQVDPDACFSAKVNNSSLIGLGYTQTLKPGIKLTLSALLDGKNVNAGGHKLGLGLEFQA
T31 sequence (Q9R0P6 whole entry): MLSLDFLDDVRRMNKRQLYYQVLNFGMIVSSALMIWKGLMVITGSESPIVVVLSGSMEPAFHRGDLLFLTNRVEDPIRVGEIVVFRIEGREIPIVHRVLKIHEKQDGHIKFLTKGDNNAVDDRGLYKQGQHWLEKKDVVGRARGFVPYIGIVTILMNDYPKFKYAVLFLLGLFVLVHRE
T33 sequence (Q9Z0R9 whole entry): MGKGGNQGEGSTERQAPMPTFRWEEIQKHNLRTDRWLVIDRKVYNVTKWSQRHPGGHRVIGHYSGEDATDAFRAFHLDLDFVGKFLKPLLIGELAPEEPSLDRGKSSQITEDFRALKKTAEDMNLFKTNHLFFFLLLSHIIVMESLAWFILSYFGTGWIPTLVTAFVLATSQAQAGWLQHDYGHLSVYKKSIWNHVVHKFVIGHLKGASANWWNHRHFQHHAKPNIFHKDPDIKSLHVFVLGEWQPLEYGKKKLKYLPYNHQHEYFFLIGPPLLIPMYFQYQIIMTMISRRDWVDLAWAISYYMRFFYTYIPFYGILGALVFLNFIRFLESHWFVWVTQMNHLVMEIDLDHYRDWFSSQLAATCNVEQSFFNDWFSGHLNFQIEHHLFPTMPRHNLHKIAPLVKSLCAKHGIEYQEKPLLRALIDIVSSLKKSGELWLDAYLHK
T11 sequence (Q61207 60-557): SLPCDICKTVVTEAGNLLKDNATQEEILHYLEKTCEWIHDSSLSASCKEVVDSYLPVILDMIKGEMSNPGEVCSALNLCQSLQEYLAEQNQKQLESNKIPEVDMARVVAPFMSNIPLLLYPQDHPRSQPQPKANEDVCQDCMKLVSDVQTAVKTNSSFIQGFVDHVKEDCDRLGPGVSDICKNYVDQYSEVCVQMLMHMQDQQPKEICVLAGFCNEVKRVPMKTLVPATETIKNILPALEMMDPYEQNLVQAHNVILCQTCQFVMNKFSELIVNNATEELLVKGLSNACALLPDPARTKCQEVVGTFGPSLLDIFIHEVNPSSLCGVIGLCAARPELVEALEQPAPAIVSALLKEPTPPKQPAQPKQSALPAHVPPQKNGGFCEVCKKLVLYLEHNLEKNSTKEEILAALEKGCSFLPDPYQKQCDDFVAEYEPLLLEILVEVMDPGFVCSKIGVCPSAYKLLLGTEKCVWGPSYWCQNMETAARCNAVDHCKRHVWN
T9 sequence (Q60930 whole entry): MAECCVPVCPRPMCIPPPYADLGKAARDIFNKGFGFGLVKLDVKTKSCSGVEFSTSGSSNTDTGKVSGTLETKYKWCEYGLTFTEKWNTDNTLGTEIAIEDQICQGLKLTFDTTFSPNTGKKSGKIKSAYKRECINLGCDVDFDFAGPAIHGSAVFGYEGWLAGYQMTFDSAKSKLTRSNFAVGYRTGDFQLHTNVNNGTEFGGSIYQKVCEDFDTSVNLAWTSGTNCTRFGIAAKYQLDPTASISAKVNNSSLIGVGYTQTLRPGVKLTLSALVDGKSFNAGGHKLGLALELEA
T17 sequence (Q8BJ03 whole entry): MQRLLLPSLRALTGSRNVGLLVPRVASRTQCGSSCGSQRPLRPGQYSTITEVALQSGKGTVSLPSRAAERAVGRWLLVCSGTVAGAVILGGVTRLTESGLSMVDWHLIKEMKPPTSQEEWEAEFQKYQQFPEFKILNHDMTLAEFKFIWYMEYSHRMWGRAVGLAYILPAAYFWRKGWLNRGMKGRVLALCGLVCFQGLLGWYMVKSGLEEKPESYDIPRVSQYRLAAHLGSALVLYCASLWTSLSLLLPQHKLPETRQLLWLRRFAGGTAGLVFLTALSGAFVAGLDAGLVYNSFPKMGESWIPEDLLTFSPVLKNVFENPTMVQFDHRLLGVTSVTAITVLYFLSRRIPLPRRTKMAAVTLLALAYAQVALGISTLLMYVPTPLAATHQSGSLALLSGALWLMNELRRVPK
T23 sequence (Q91V01 whole entry): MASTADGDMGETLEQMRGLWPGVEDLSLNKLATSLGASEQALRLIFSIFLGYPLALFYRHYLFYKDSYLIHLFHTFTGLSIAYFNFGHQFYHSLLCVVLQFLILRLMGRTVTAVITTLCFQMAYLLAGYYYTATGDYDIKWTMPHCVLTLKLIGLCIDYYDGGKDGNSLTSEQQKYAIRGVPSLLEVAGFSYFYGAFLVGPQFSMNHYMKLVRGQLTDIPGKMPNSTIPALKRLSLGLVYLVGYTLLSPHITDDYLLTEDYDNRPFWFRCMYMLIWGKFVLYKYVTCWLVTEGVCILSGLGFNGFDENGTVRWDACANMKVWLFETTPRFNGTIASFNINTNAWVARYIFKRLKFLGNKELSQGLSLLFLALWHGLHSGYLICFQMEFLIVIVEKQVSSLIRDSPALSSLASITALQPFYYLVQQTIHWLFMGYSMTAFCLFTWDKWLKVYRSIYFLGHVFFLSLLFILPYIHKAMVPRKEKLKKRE
T24 sequence (Q91VM5 whole entry): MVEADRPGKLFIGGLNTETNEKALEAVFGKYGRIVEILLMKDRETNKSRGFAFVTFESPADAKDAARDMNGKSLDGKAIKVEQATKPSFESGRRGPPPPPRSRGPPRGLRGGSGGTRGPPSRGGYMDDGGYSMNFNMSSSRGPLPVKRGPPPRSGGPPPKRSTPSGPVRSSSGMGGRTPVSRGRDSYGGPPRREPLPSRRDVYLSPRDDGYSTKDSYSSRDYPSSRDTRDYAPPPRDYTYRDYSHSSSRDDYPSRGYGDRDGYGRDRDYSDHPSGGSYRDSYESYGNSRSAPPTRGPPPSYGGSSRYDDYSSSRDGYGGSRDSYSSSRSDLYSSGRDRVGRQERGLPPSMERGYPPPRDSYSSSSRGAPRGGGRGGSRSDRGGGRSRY
T13 sequence (Q78IK4 28-265): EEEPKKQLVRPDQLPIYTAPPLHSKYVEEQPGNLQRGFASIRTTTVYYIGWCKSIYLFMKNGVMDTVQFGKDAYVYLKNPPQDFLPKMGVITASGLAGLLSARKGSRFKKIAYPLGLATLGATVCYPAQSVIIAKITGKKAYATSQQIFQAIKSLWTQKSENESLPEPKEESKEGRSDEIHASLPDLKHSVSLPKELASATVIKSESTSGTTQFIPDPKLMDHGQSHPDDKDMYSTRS
T6 sequence (Q3KNM2 whole entry): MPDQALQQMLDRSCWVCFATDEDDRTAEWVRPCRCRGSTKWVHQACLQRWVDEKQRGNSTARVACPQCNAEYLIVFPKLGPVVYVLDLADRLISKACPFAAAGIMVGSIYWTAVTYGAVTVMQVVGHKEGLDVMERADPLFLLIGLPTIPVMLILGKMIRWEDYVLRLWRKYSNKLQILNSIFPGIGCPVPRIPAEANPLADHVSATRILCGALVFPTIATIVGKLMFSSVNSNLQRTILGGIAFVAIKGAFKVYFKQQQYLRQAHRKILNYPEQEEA
T20 sequence (Q8R2Y0 whole entry): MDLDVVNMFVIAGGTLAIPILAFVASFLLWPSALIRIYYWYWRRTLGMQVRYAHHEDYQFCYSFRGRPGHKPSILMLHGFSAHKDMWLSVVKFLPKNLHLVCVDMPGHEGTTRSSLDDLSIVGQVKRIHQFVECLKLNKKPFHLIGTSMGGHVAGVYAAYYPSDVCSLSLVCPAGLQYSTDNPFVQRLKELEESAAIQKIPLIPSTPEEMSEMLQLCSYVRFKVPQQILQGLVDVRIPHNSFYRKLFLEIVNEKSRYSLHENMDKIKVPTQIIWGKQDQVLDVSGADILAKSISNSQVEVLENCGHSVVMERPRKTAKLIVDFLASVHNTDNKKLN
T29 sequence (Q9CPQ3 whole entry): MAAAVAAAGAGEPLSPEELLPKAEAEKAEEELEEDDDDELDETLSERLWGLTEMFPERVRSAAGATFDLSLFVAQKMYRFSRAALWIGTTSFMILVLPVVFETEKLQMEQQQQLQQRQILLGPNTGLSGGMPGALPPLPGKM
T18 sequence (Q8BVU5 47-350): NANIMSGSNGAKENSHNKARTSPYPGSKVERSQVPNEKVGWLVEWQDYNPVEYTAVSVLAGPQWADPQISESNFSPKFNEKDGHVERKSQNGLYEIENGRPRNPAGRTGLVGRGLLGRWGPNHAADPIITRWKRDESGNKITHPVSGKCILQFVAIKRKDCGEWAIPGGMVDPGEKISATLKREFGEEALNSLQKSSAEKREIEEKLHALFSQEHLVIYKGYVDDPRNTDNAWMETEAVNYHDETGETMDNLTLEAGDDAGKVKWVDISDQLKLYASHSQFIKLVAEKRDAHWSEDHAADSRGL
T5 sequence (P45878 23-140): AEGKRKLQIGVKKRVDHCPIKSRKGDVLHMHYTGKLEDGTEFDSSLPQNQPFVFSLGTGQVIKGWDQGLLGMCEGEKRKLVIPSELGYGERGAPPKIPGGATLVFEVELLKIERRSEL
T3 sequence (O70503 whole entry): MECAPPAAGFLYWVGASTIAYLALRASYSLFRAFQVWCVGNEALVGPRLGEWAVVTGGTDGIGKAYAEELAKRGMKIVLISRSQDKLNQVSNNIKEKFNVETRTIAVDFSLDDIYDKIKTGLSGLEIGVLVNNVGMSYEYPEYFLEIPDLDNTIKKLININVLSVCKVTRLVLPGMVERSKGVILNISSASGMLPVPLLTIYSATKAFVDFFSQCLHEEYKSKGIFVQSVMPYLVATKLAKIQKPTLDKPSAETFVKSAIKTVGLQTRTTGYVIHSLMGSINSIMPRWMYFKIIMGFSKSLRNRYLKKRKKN

## C#CCCCC1(CC/C=C\C/C=C\C/C=C\CCCC(=O)NCCO)N=N1 [AEA-DA, (5Z,8Z,11Z)-N-(2-hydroxyethyl)-14-(3-(pent-4-yn-1-yl)-3H-diazirin-3-yl)tetradeca-5,8,11-trienamide]
[1]
  SILAC ratio, EMD (O08579): 20.0
[2]
  SILAC ratio, HMOX2 (P30519): 4.0
[3]
  SILAC ratio, HSD17B12 (Q53GQ0): 15.3
[4]
  SILAC ratio, AEA-DA probe versus No UV: 20.0
[5]
  SILAC ratio, AEA-DA probe versus No UV: 5.6
[6]
  SILAC ratio, MARCH5 (Q3KNM2): 20.0
[7]
  SILAC ratio, AEA-DA probe versus No UV: 20.0
[8]
  SILAC ratio, OPA3 (Q505D7): 20.0
[9]
  SILAC ratio, VDAC2 (P45880): 16.5
[10]
  SILAC ratio, VDAC1 (P21796): 20.0
[11]
  SILAC ratio, PSAP (P07602): 20.0
[12]
  SILAC ratio, VAT1 (Q99536): 4.4
[13]
  SILAC ratio, AEA-DA probe versus No UV: 6.4
[14]
  SILAC ratio, PGRMC2 (Q80UU9): 16.3
[15]
  SILAC ratio, DCAKD (Q8BHC4): 9.0
[16]
  SILAC ratio, AEA-DA probe versus No UV: 20.0
[17]
  SILAC ratio, AEA-DA probe versus No UV: 12.3
[18]
  SILAC ratio, AEA-DA probe versus No UV: 20.0
[19]
  SILAC ratio, SGPL1 (O95470): 20.0
[20]
  SILAC ratio, ABHD6 (Q8R2Y0): 20.0
[21]
  SILAC ratio, TMEM48 (Q8VCB1): 14.5
[22]
  SILAC ratio, AEA-DA probe versus No UV: 20.0
[23]
  SILAC ratio, LPCAT3 (Q6P1A2): 18.7
[24]
  SILAC ratio, AEA-DA probe versus No UV: 6.0
[25]
  SILAC ratio, AEA-DA probe versus No UV: 15.1
[26]
  SILAC ratio, CERS2 (Q924Z4): 17.1
[27]
  SILAC ratio, TRABD (Q99JY4): 12.0
[28]
  SILAC ratio, AEA-DA probe versus No UV: 11.6
[29]
  SILAC ratio, TOMM22 (Q9CPQ3): 20.0
[30]
  SILAC ratio, TIMM22 (Q9CQ85): 13.6
[31]
  SILAC ratio, SEC11A (P67812): 5.4
[32]
  SILAC ratio, NSDHL (Q15738): 9.4
[33]
  SILAC ratio, FADS2 (Q9Z0R9): 10.5
[34]
  SILAC ratio, GM20425 (E9Q035): 16.5
